In the supplement of paper PMC10307832:

Experiments:
Assay in all cases: relative viability (nuclei count vs DMSO), 5 days (fraction); higher = more cells survive
R406 + Linsitinib = compound: COc1cc(Nc2ncc(F)c(Nc3ccc4c(n3)NC(=O)C(C)(C)O4)n2)cc(OC)c1OC [R406] + C[C@]1(O)C[C@@H](c2nc(-c3ccc4ccc(-c5ccccc5)nc4c3)c3c(N)nccn32)C1 [Linsitinib] (partner 1 µM)
Procedure, shortened: (§1)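 Lung cancer cell lines, seeded in 1536-well plates, were treated the following day by pin tool with a single drug or with five library-drug doses (not always all listed) in √10 steps on top of a fixed anchor-drug dose. Cells were fixed and nuclei stained in one step after 5 days, and nuclei were counted. Relative viability is the nuclei count for treated wells divided by that for vehicle wells, reported as medians of duplicate plates.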

R406 + Phenformin = compound: COc1cc(Nc2ncc(F)c(Nc3ccc4c(n3)NC(=O)C(C)(C)O4)n2)cc(OC)c1OC [R406] + N=C(N)NC(=N)NCCc1ccccc1 [Phenformin] (partner 250 µM)
Procedure, shortened: as §1

R406 + Vorinostat = compound: COc1cc(Nc2ncc(F)c(Nc3ccc4c(n3)NC(=O)C(C)(C)O4)n2)cc(OC)c1OC [R406] + O=C(CCCCCCC(=O)Nc1ccccc1)NO [Vorinostat] (partner 1 µM)
Procedure, shortened: as §1

Daporinad + Alpelisib = compound: O=C(/C=C/c1cccnc1)NCCCCC1CCN(C(=O)c2ccccc2)CC1 [Daporinad] + Cc1nc(NC(=O)N2CCC[C@H]2C(N)=O)sc1-c1ccnc(C(C)(C)C(F)(F)F)c1 [Alpelisib] (partner 2 µM)
Procedure, shortened: as §1

UMC-11
relative viability (R406 + Linsitinib; first compound 0.08 µM): 1.1 | relative viability (R406 + Linsitinib; first compound 0.253 µM): 1.1 | relative viability (R406 + Linsitinib; first compound 0.8 µM): 1.16 | relative viability (R406 + Linsitinib; first compound 2.53 µM): 0.935 | relative viability (R406 + Linsitinib; first compound 8 µM): 0.474 | relative viability (R406 + Phenformin; first compound 0.08 µM): 0.356 | relative viability (R406 + Phenformin; first compound 0.253 µM): 0.35 | relative viability (R406 + Phenformin; first compound 0.8 µM): 0.368 | relative viability (R406 + Phenformin; first compound 2.53 µM): 0.28 | relative viability (R406 + Phenformin; first compound 8 µM): 0.19 | relative viability (R406 + Vorinostat; first compound 0.08 µM): 0.361 | relative viability (R406 + Vorinostat; first compound 0.253 µM): 0.312 | relative viability (R406 + Vorinostat; first compound 0.8 µM): 0.39 | relative viability (R406 + Vorinostat; first compound 2.53 µM): 0.304 | relative viability (R406 + Vorinostat; first compound 8 µM): 0.127 | relative viability (Daporinad + Alpelisib; first compound 0.0005 µM): 0.915 | relative viability (Daporinad + Alpelisib; first compound 0.001581 µM): 0.979 | relative viability (Daporinad + Alpelisib; first compound 0.005 µM): 1.07 | relative viability (Daporinad + Alpelisib; first compound 0.01581 µM): 1.1
